Assay results as given in patent US9441261B2, “Use of bacterial beta-lactamase for in vitro diagnostics and in vivo imaging, diagnostics and therapeutics” (priority 2008, dated 2016).
“Also recorded” adds a separate entry of the source. Where two headings read alike, the source gives them in different places.

How the values were obtained:
[1] = system: CCN1CCN(C(=O)N[C@@H](C(=O)N[C@@H]2C(=O)N3C(C(=O)O)=C(CSc4nnnn4C)CS[C@H]23)c2ccc(O)cc2)C(=O)C1=O; assay: purified protein, by the assay type
TEM-1 Bla [2] = molecular target: T1, TEM-1 Bla (Escherichia coli, UniProt P62593); format: biochemical, E. coli; conditions: for hydrolysis by TEM-1 bla: in words
T1 sequence (P62593 24-286 limits assumed): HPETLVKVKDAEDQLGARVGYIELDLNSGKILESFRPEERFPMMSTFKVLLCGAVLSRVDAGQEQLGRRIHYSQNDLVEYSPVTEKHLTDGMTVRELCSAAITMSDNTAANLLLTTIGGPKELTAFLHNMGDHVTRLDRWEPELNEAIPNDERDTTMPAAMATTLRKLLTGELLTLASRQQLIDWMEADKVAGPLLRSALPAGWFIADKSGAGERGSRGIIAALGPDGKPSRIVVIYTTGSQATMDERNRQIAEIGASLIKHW

Mtb BlaC [3] = molecular target: T2, Mtb BlaC (Mycobacterium tuberculosis, UniProt P9WKD3); format: biochemical; conditions: for enzyme preference Mtb BlaC versus TEM-1 Bla: in words
T2 sequence (P9WKD3 35-307): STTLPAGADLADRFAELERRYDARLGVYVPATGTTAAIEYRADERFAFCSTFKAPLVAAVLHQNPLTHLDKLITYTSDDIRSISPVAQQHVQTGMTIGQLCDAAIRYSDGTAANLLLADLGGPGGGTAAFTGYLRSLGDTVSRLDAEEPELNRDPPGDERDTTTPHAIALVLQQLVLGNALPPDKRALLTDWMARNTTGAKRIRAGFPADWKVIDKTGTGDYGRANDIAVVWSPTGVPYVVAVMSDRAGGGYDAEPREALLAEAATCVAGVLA

Bacillus Calmette-Guerin = format: cell-based, Mycobacterium bovis; conditions: 2 ng/μl rifampicin or 0.2 ng/μl INH, sputum, CDG-OMe, 24 hour
Mtb BlaC [4] = molecular target: T2, Mtb BlaC; assay: Hydrolysis kinetics of coumarin-based lactam probes by Mtb BlaC (fluorescence of released 7-hydroxycoumarin); format: biochemical
Bla = Bla (Escherichia coli, UniProt P62593); format: biochemical; conditions: CC1 versus analog without inserted double bond
Chain of Bla (P62593 24-286 limits assumed): as the sequence (P62593 24-286 limits assumed) above

Bla in live E. coli = assay: Detection of Bla activity in living E. coli; format: cell-based; conditions: E. coli with ampicillin resistant plasmid, LB media
TEM-1 Bla [5] = molecular target: T1, TEM-1 Bla; conditions: cefoperazone versus CNIR5

TEM-1 Bla (Escherichia coli)
Km ([1]; other: TEM-1 Bla): 262 µM
kcat ([1]; other: TEM-1 Bla): 0.26 s⁻¹
kcat/Km ([1]; other: TEM-1 Bla): 1000 M⁻¹ s⁻¹

CCO[C@@]1(NC(=O)Cc2ccccc2)C(=O)N2C(C(=O)O)=C(COc3ccc4ccc(=O)oc4c3)CS[C@@H]21 [CDC-OEt]
hydrolysis by TEM-1 bla (TEM-1 Bla [2]): so slow that cannot be determined

CO[C@@]1(NC(=O)Cc2cccs2)C(=O)N2C(C(=O)O)=C(COC(N)=O)CS[C@@H]21 [cefoxitin]
enzyme preference Mtb BlaC versus TEM-1 Bla (Mtb BlaC [3]): better kinetics with the Mtb BlaC than TEM-1

NNC(=O)c1ccncc1 [isoniazide]
fluorescence of BCG with drug over time (Bacillus Calmette-Guerin): effectively no increase in fluorescence

O=C(Cc1ccccc1)N[C@@H]1C(=O)N2C(C(=O)O)=C(COc3ccc4ccc(=O)oc4c3)CS[C@H]12 [CDC-1]
enzyme preference Mtb BlaC versus TEM-1 Bla (Mtb BlaC [4]; in words): TEM-1 Bla-preferred

O=C(Cc1ccccc1)N[C@@H]1C(=O)N2C(C(=O)O)=C(/C=C\COc3ccc4ccc(=O)oc4c3)CS[C@H]12 [CC1]
increase in the catalytic efficiency by the inserted double bond (Bla): ~5 fold

CCCC(=O)Oc1cc2oc(=O)c(C(=O)NCC(=O)N[C@@H]3C(=O)N4C(C(=O)OCOC(C)=O)=C(CSc5ccc6c(c5)C(=O)OC65c6ccc(OC(C)=O)cc6Oc6cc(OC(C)=O)ccc65)CS[C@H]34)cc2cc1Cl [CCF2/AM]
detection of Bla in live E. coli (Bla in live E. coli): not detected

Mtb BlaC (Mycobacterium tuberculosis H37Rv)
Km [1]: 76 µM
kcat [1]: 2.01 s⁻¹
kcat/Km [1]: 26000 M⁻¹ s⁻¹

CO[C@@]1(NC(C)=O)C(=O)N2C(C(=O)O)=C(COc3ccc4ccc(=O)oc4c3)CS[C@@H]21 [4-64]
hydrolysis by TEM-1 bla (TEM-1 Bla [2]): so slow that cannot be determined

O=C(Cc1ccccc1)N[C@@H]1C(=O)N2C(C(=O)O)=C(COc3ccc4ccc(=O)oc4c3)C[S+]([O-])[C@H]12 (some centres unmarked) [CDC-2]
kcat (TEM-1 Bla [2]; TEM-1 bla): 7 s⁻¹
kcat (Mtb BlaC [4]; blaC): 0.51 s⁻¹

CCN1CCN(C(=O)N[C@@H](C(=O)N[C@@H]2C(=O)N3C(C(=O)O)=C(CSc4nnnn4C)CS[C@H]23)c2ccc(O)cc2)C(=O)C1=O [cefoperazone]
faster kinetics with the Mtb enzyme than the TEM-1 enzyme (Mtb BlaC [3]): 10-100 fold
enzyme preference Mtb BlaC versus TEM-1 Bla (Mtb BlaC [3]): preferred substrate for Mtb BlaC as compared to TEM-1 Bla; also recorded: better kinetics with the Mtb BlaC than TEM-1
kcat/KM for TEM-1 Bla smaller than that of CNIR5 (TEM-1 Bla [5]): 100 fold

CO/N=C(\C(=O)N[C@@H]1C(=O)N2C(C(=O)O)=C(COC(C)=O)CS[C@H]12)c1csc(N)n1 [cefotaxime]
enzyme preference Mtb BlaC versus TEM-1 Bla (Mtb BlaC [3]): better kinetics with the Mtb BlaC than TEM-1

CO[C@@]1(NC(=O)Cc2ccccc2)C(=O)N2C(C(=O)O)=C(COc3ccc4ccc(=O)oc4c3)CS[C@@H]21 [CDC-OMe]
kcat/Km for blaC larger than for TEM-1 bla (Mtb BlaC [4]): 1,400 fold
